Patent US7332279B2 (Glycozym APS, priority 1999, dated 2008)

Biological target: T1, β4Gal-T2 (Homo sapiens, UniProt O60909)
T1 construct: The kinetic properties were determined with partially purified, secreted forms of the enzymes; made in house; host or cells: baculovirus; insect cells (Sf9 / High Five)
T1 sequence (O60909 37-372 limits assumed): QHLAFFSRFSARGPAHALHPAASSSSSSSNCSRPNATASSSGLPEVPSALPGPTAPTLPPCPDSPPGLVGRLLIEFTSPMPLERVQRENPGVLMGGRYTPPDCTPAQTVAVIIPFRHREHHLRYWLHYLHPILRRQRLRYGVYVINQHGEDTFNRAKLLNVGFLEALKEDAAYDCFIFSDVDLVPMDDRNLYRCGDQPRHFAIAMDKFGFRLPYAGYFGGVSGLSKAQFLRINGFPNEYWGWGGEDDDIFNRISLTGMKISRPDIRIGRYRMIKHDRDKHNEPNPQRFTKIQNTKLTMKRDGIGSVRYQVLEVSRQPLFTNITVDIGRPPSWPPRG
Experiment: Galactosyltransferase assay, recombinant β4Gal-T2, saccharide acceptors
Format: biochemical
Experimental: An expression construct (pAcGP67-β3Gal-T5-sol) designed to exclude the hydrophobic transmembrane segment and to encode amino acid residues 25-310, was prepared by PCR using P1 genomic DNA, and the primer pair EBER1300 sol (5′-[…]) (SEQ ID NO:3) and EBER1310 (5′-[…]) (SEQ ID NO:4) (FIG. 1), which included BamHI restriction sites. PCR product was cloned into the BamHI site of pAcGP67B (Pharmingen). An expression construct (pVL-β3Gal-T5-full) designed to encode the full coding sequence (from first ATG, FIG. 1) was prepared by PCR with P1 genomic DNA using the primer pair EBER1309 (5′-[…]) (SEQ ID NO:5) and EBER1310. This PCR product was cloned into the BamHI site of pVL1193 (Pharmingen). Both soluble and full length constructs were fully sequenced to confirm fidelity. Plasmids pAcGP67-β3GalT5-sol and pVL-β3Gal-T5-full were co-transfected with Baculo-Gold™ DNA (Pharmingen) as described previously (Bennett, E. P., Hassan, H. and Clausen, H. cDNA cloning and expression of a novel human UDP-N-acetyl-alpha-D-galactosamine. Polypeptide N-acetyl-galactosaminyl-transferase, GalNAc-T3. J. Biol. Chem. 271:17006-17012, 1996). Recombinant Baculo-virus were obtained after two successive amplifications in Sf9 cells grown in serum-containing medium, and titers of virus were estimated by titration in 24-well plates with monitoring of enzyme activities. […] Polypeptide N-acetyl-galactosaminyl-transferase, GalNAc-T3. J. Biol. Chem. 271:17006-17012, 1996). For large scale expression amplified virus was used to infect High Five™ cells grown in serum-free media (Invitrogen) in upright roller bottles shaking at 140 rpm and 27° C.
The kinetic properties were determined with partially purified, secreted forms of the enzymes. Semipurification of enzymes from serum-free medium of infected High-Five™ cells was performed by sequential Amberlite, DEAE-Sephacel and 5-Sepharose chromatography as described previously (Wandall, H. H., Hassan, H., Mirgorodskaya, E., et al. Substrate specificities of three. members of the human UDP-N-acetyl-alpha-D-galactosamine:Polypeptide Nacetylgalactosaminyltransferase family, GalNAc-T1, -T2, and -T3. J. Biol. Chem. 272:23503-23514, 1997). Comparisons of enzymes were performed relatively to the activity obtained with βGlcNAc-Bz1 (Tables II and III). Full length enzymes were assayed with 1% Triton CF54 homogenates of washed cells. Enzyme assays were performed in 50 μl total reaction mixtures containing 25 mM Cacodylate (pH 7.5), 10 mM MnCl2, 0.25% Triton X-100, 100 μM UDP-[^14C]-Gal (2,600 cpm/nmol) (Amersham), and varying concentrations of acceptor substrates (Sigma) (see Table I for structures). Reaction products were quantified by Dowex-1 chromatography. […] The transfer of Gal was evaluated after acid precipitation by filtration through Whatman GF/C glass fibre filters. […] Assays with glycolipid acceptors were conducted as previously described (Holmes, E. H. Characterization and membrane organization of beta 1-3- and beta 1-4-galactosyltransferases from human colonic adenocarcinoma cell lines Cob 205 and SW403: basis for preferential synthesis of type 1 chain lacto-series carbohydrate structures. Arch Biochem Biophys 270:630-646, 1989) in reaction mixtures containing 2.5 μmol HEPES buffer, pH 7.2, μmol MnCl2, 100 μg taurodeoxycholate or Triton CF-54, 20 μg acceptor glycolipid, 15 nmol UDP-[^14C]-galactose (13,000 cpm/nmol) and enzyme in a total volume of 100 μl. Conditions for incubation and product isolation were as previously described (Id.).

Row | β4Gal-T2 activity, acceptor 0.2 mM [nmol/min] | β4Gal-T2 ratio to value with βGlcNAc-Bzl, acceptor 0.2 mM | β4Gal-T2 activity, acceptor 2 mM (2 mM) [nmol/min] | β4Gal-T2 ratio to value with βGlcNAc-Bzl, acceptor 2 mM (2 mM) | β4Gal-T2 activity with βGlcNAc-Bzl (β-D-GlcNAc-Bzl at 0.25 mM) [nmol/min] | Compound
1 | 0.2 | (0.6) | 0.01 | (0.3) | – | CC(=O)NC1C(OC2C(O)C(CO)OC(Oc3ccc([N+](=O)[O-])cc3)C2NC(C)=O)OC(CO)C(O)C1O [β-D-GlcNAc-(1–3)-α-D-GalNAc-p-Nph]
2 | – | – | – | – | 0.03 | CC(=O)N[C@H]1[C@H](OCc2ccccc2)O[C@H](CO)[C@@H](O)[C@@H]1O [β-D-GlcNAc-Bzl]
3 | 0.03 | (1.0) | – | – | – | CC(=O)N[C@H]1[C@H](OC[C@H]2O[C@H](Oc3ccc([N+](=O)[O-])cc3)[C@H](NC(C)=O)[C@@H](O[C@@H]3O[C@H](CO)[C@H](O)[C@H](O)[C@H]3O)[C@H]2O)O[C@H](CO)[C@@H](O)[C@@H]1O [βGlcNAc(1,6)[βGal(1,3)]αGalNAc-p-Nph]
